Measured values published in PMC6274457, “Characterization of a New Flavone and Tyrosinase Inhibition Constituents from the Twigs of Morus alba L” (Molecules, 2016).

How the values were obtained:
Mushroom tyrosinase [1] = molecular target: T1, Mushroom tyrosinase (Agaricus bisporus, UniProt C7FF04); experiment: Mushroom tyrosinase inhibitory assay (spectrophotometric, L-tyrosine substrate); format: biochemical; conditions: qualitative statement; comparison with positive control kojic acid where stated
Protocol: The compounds were firstly dissolved in DMSO at a concentration of 1.0 mg/mL and then diluted to different concentrations with DMSO. […] The reaction mixtures (3.0 mL) were vortexed and the initial absorbance at 492 nm was measured. After incubation for 20 min at 37 °C, the final absorbance at the same wavelength was taken. […] B1 is the absorbance at 492 nm of test sample at 0 min, B2 is the absorbance at 492 nm of test sample at 20 min.

Mushroom tyrosinase [2] = molecular target: T1, Mushroom tyrosinase; set-up: method as in PMID 26616992; conditions: single resorcinol derivatives, weak activity; read-out: Tyrosinase inhibitory activity IC50; cited from earlier work

T1 sequence (G1K3P4 entry or part of it): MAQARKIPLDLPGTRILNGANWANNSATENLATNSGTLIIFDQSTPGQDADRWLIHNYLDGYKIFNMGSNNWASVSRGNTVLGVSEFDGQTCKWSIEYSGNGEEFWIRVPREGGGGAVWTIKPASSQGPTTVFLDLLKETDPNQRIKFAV
T1 sequence (C7FF04 1-392): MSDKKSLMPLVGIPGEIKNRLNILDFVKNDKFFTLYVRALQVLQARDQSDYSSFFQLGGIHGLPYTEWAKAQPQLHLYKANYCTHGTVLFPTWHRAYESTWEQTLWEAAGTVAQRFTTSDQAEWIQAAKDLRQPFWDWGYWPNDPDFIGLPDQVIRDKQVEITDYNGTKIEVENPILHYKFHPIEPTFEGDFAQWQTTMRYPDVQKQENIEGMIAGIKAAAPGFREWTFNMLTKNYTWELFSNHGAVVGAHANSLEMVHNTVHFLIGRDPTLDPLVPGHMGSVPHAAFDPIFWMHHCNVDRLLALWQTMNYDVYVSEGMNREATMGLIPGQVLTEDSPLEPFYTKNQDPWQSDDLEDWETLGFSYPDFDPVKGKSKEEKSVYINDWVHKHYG

Row | Structure (SMILES) | Mushroom tyrosinase inhibitory activity, result in words (Mushroom tyrosinase [1]) | IC50 (Mushroom tyrosinase [2])
1 | O=C(/C=C/c1ccc(O)cc1O)c1ccc(O)cc1O [2,4,2′,4′-Tetrahydroxychalcone (3), 2,4,2′,4′-Tetrahydroxychalcone] | much stronger | 
2 | CC(=O)c1ccc(O)cc1O [2,4-dihydroxyacetophenone] |  | > 200 µM
3 | CC(C)=CCc1c(O)ccc(C(=O)/C=C/c2ccc(O)cc2O)c1O [Morachalcone A (4), morachalcone A] | much stronger | 
4 | Oc1cc(O)cc(-c2cc3ccc(O)cc3o2)c1 [Moracin M (14), moracin M] | much stronger | 
5 | C=C(C)C(=O)Cc1c(-c2ccc(O)cc2O)oc2c3c(cc(O)c2c1=O)OC(C)(C)C=C3 [Morusone (1), 2-(2,4-dihydroxyphenyl)-5-hydroxy-8,8-dimethyl-3-(3-methyl-2-oxo-but-3-enyl)-8H-pyrano[2,3-f]chromen-4-one] | weak | 
6 | Oc1cc(O)cc(/C=C/c2ccc(O)cc2O)c1 [Oxyresveratrol (5), oxyresveratrol] | much stronger | 
7 | O=C1CC(c2ccc(O)cc2O)Oc2cc(O)cc(O)c21 (stereo not shown) [Steppogenin (2), steppogenin] | much stronger | 
